Data as given in patent US20230085307A1, “PYRIDAZINONE COMPOUND AND HERBICIDE” (NISSAN CHEMICAL CORPORATION, priority 2019, published 2023).

Experiments:
wild oat [1] = test: Test Example 4: herbicidal effect by soil treatment (Table 19, symbol I); type: in vivo, wild oat (Avena fatua); conditions: amount of applied herbicide 320 g/ha
Summary of the method: (§1)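 Seeds were sown in sterilized diluvial soil and covered with about 1.5 cm of soil. An emulsion formulation diluted with water to a predetermined herbicide amount was sprayed evenly onto the soil surface. Plants grew in a greenhouse at 25° C. to 30° C., and the effect was scored three weeks after application using criteria from an earlier test.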

windgrass [2] = test: Test Example 4: herbicidal effect by soil treatment (Table 19, symbol L); type: in vivo, windgrass (Apera spica-venti); conditions: amount of applied herbicide 320 g/ha
Summary of the method: as §1

barnyard grass [3] = test: Test Example 5: herbicidal effect by foliage application, plastic box (Table 20, symbol H); type: in vivo, barnyard grass (Echinochloa crus-galli); conditions: 320 g/ha, foliage application after 14-day growth, evaluated three weeks after application
Summary of the method: (§2)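 Plants sown in sterilized diluvial soil and grown 14 days in a greenhouse at 25° C to 30° C, then sprayed on the foliage with the compound's emulsion diluted in water to a predetermined herbicide amount. Injury to weeds and crops scored three weeks after application on a visual rating scale.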

southern crabgrass [4] = test: Test Example 5: herbicidal effect by foliage application, plastic box (Table 20, symbol F); type: in vivo, southern crabgrass (Digitaria ciliaris); conditions: 320 g/ha, foliage application after 14-day growth, evaluated three weeks after application
Summary of the method: as §2

lambsquarters [5] = test: Test Example 5: herbicidal effect by foliage application, plastic box (Table 20, symbol O); type: in vivo, lambsquarters (Chenopodium album); conditions: 320 g/ha, foliage application after 14-day growth, evaluated three weeks after application
Summary of the method: as §2

oval-leafed pondweed = test: Test Example 1: herbicidal activity, application before weed generation under submerged conditions (Table 16, symbol C); type: in vivo, oval-leafed pondweed (Monochoria vaginalis); conditions: amount of applied herbicide 320 g/ha
Summary of the method: (§3)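 Emulsion formulation, water-diluted to set dose, was put onto the flooded surface (4 cm depth, alluvial soil) the same day weeds were sown and 2.5-leaf rice transplanted. After 3 weeks at 25-30 °C under glass, each species was rated 0 (≤5% kill) to 5 (≥90% kill).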

velvetleaf [6] = test: Test Example 5: herbicidal effect by foliage application, plastic box (Table 20, symbol M); type: in vivo, velvetleaf (Abutilon theophrasti); conditions: 320 g/ha, foliage application after 14-day growth, evaluated three weeks after application
Summary of the method: as §2

redroot pigweed [7] = test: Test Example 4: herbicidal effect by soil treatment (Table 19, symbol N); type: in vivo, redroot pigweed (Amaranthus retroflexus); conditions: amount of applied herbicide 320 g/ha
Summary of the method: as §1

persian speedwell [8] = test: Test Example 5: herbicidal effect by foliage application, plastic box (Table 20, symbol R); type: in vivo, Persian speedwell (Veronica persica); conditions: 320 g/ha, foliage application after 14-day growth, evaluated three weeks after application
Summary of the method: as §2

persian speedwell [9] = test: Test Example 4: herbicidal effect by soil treatment (Table 19, symbol R); type: in vivo, Persian speedwell (Veronica persica); conditions: amount of applied herbicide 320 g/ha
Summary of the method: as §1

lambsquarters [10] = test: Test Example 4: herbicidal effect by soil treatment (Table 19, symbol O); type: in vivo, lambsquarters (Chenopodium album); conditions: amount of applied herbicide 320 g/ha
Summary of the method: as §1

southern crabgrass [11] = test: Test Example 4: herbicidal effect by soil treatment (Table 19, symbol F); type: in vivo, southern crabgrass (Digitaria ciliaris); conditions: amount of applied herbicide 320 g/ha
Summary of the method: as §1

blackgrass [12] = test: Test Example 5: herbicidal effect by foliage application, plastic box (Table 20, symbol J); type: in vivo, blackgrass (Alopecurus myosuroides); conditions: 320 g/ha, foliage application after 14-day growth, evaluated three weeks after application
Summary of the method: as §2

barnyard grass [13] = test: Test Example 4: herbicidal effect by soil treatment (Table 19, symbol H); type: in vivo, barnyard grass (Echinochloa crus-galli); conditions: amount of applied herbicide 320 g/ha
Summary of the method: as §1

Italian ryegrass [14] = test: Test Example 4: herbicidal effect by soil treatment (Table 19, symbol K); type: in vivo, Italian ryegrass (Lolium multiflorum); conditions: amount of applied herbicide 320 g/ha
Summary of the method: as §1

velvetleaf [15] = test: Test Example 4: herbicidal effect by soil treatment (Table 19, symbol M); type: in vivo, velvetleaf (Abutilon theophrasti); conditions: amount of applied herbicide 320 g/ha
Summary of the method: as §1

green foxtail [16] = test: Test Example 5: herbicidal effect by foliage application, plastic box (Table 20, symbol G); type: in vivo, green foxtail (Setaria viridis); conditions: 320 g/ha, foliage application after 14-day growth, evaluated three weeks after application
Summary of the method: as §2

windgrass [17] = test: Test Example 5: herbicidal effect by foliage application, plastic box (Table 20, symbol L); type: in vivo, windgrass (Apera spica-venti); conditions: 320 g/ha, foliage application after 14-day growth, evaluated three weeks after application
Summary of the method: as §2

wild oat [18] = test: Test Example 5: herbicidal effect by foliage application, plastic box (Table 20, symbol I); type: in vivo, wild oat (Avena fatua); conditions: 320 g/ha, foliage application after 14-day growth, evaluated three weeks after application
Summary of the method: as §2

Japanese bulrush = test: Test Example 1: herbicidal activity, application before weed generation under submerged conditions (Table 16, symbol B); type: in vivo, Japanese bulrush (Schoenoplectus juncoides); conditions: amount of applied herbicide 320 g/ha
Summary of the method: as §3

blackgrass [19] = test: Test Example 4: herbicidal effect by soil treatment (Table 19, symbol J); type: in vivo, blackgrass (Alopecurus myosuroides); conditions: amount of applied herbicide 320 g/ha
Summary of the method: as §1

Chinese sprangletop = test: Test Example 3: herbicidal effect by foliage application, Wagner pot (Table 18, symbol D); type: in vivo, chinese sprangletop (Leptochloa chinensis); conditions: 320 g/ha
Summary of the method: (§4)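 Plants were sown in alluvial soil held under 0.1–0.5 cm standing water and grown 14 days in a greenhouse at 25–30 °C. An emulsifiable formulation, water-diluted to the set dose, was then sprayed onto the foliage, and effects were scored three weeks later using previously defined criteria.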

redroot pigweed [20] = test: Test Example 5: herbicidal effect by foliage application, plastic box (Table 20, symbol N); type: in vivo, redroot pigweed (Amaranthus retroflexus); conditions: 320 g/ha, foliage application after 14-day growth, evaluated three weeks after application
Summary of the method: as §2

chickweed [21] = test: Test Example 4: herbicidal effect by soil treatment (Table 19, symbol P); type: in vivo, common chickweed (Stellaria media); conditions: amount of applied herbicide 320 g/ha
Summary of the method: as §1

chickweed [22] = test: Test Example 5: herbicidal effect by foliage application, plastic box (Table 20, symbol P); type: in vivo, common chickweed (Stellaria media); conditions: 320 g/ha, foliage application after 14-day growth, evaluated three weeks after application
Summary of the method: as §2

rice flat sedge = test: Test Example 3: herbicidal effect by foliage application, Wagner pot (Table 18, symbol E); type: in vivo, rice flat sedge (Cyperus iria); conditions: 320 g/ha
Summary of the method: as §4

Italian ryegrass [23] = test: Test Example 5: herbicidal effect by foliage application, plastic box (Table 20, symbol K); type: in vivo, Italian ryegrass (Lolium multiflorum); conditions: 320 g/ha, foliage application after 14-day growth, evaluated three weeks after application
Summary of the method: as §2

green foxtail [24] = test: Test Example 4: herbicidal effect by soil treatment (Table 19, symbol G); type: in vivo, green foxtail (Setaria viridis); conditions: amount of applied herbicide 320 g/ha
Summary of the method: as §1

barnyard grass [25] = test: Test Example 3: herbicidal effect by foliage application, Wagner pot (Table 18, symbol H); type: in vivo, barnyard grass (Echinochloa crus-galli); conditions: 320 g/ha
Summary of the method: as §4

late watergrass = test: Test Example 1: herbicidal activity, application before weed generation under submerged conditions (Table 16, symbol A); type: in vivo, late watergrass (Echinochloa oryzicola); conditions: amount of applied herbicide 320 g/ha
Summary of the method: as §3

Row | Structure (SMILES) | Herbicidal effect by soil treatment, I: wild oat (wild oat [1]) | Herbicidal effect by soil treatment, L: windgrass (windgrass [2]) | herbicidal effect on H: barnyard grass (evaluation grade 0-5) (barnyard grass [3]) | herbicidal effect on F: southern crabgrass (evaluation grade 0-5) (southern crabgrass [4]) | herbicidal effect on O: lambsquarters (evaluation grade 0-5) (lambsquarters [5]) | Herbicidal effect, C: oval-leafed pondweed (oval-leafed pondweed) | herbicidal effect on M: velvetleaf (evaluation grade 0-5) (velvetleaf [6]) | Herbicidal effect by soil treatment, N: redroot pigweed (redroot pigweed [7]) | herbicidal effect on R: persian speedwell (evaluation grade 0-5) (persian speedwell [8]) | Herbicidal effect by soil treatment, R: persian speedwell (persian speedwell [9]) | Herbicidal effect by soil treatment, O: lambsquarters (lambsquarters [10]) | Herbicidal effect by soil treatment, F: southern crabgrass (southern crabgrass [11]) | herbicidal effect on J: blackgrass (evaluation grade 0-5) (blackgrass [12]) | Herbicidal effect by soil treatment, H: barnyard grass (barnyard grass [13]) | Herbicidal effect by soil treatment, K: Italian ryegrass (Italian ryegrass [14]) | Herbicidal effect by soil treatment, M: velvetleaf (velvetleaf [15]) | herbicidal effect on G: green foxtail (evaluation grade 0-5) (green foxtail [16]) | herbicidal effect on L: windgrass (evaluation grade 0-5) (windgrass [17]) | herbicidal effect on I: wild oat (evaluation grade 0-5) (wild oat [18]) | Herbicidal effect, B: Japanese bulrush (Japanese bulrush) | also measured
1 | CCOc1cc(F)ccc1-c1sc2c(Cl)cccc2c1-c1c(O)c(C)nn(C)c1=O [4-035] | 0 (Herbicidal rate of 5% or less (almost no effect)) | 0 (Herbicidal rate of 5% or less (almost no effect)) | 5 (Herbicidal rate of 90% or more (almost completely withered)) | 5 (Herbicidal rate of 90% or more (almost completely withered)) | 4 (Herbicidal rate of 70% or more and less than 90%) | 0 (Herbicidal rate of 5% or less (almost no effect)) | 4 (Herbicidal rate of 70% or more and less than 90%) | 3 (Herbicidal rate of 40% or more and less than 70%) | 5 (Herbicidal rate of 90% or more (almost completely withered)) | 1 (Herbicidal rate of 5% or more and less than 20%) | 0 (Herbicidal rate of 5% or less (almost no effect)) | 4 (Herbicidal rate of 70% or more and less than 90%) | 5 (Herbicidal rate of 90% or more (almost completely withered)) | 5 (Herbicidal rate of 90% or more (almost completely withered)) | 0 (Herbicidal rate of 5% or less (almost no effect)) | 2 (Herbicidal rate of 20% or more and less than 40%) | 5 (Herbicidal rate of 90% or more (almost completely withered)) | 5 (Herbicidal rate of 90% or more (almost completely withered)) | 0 (Herbicidal rate of 5% or less (almost no effect)) | 0 (Herbicidal rate of 5% or less (almost no effect)) | Herbicidal effect by soil treatment, J: blackgrass (blackgrass [19]): 0 (Herbicidal rate of 5% or less (almost no effect)); herbicidal effect on Chinese sprangletop (D) (Chinese sprangletop): 3 (Herbicidal rate of 40% or more and less than 70%); herbicidal effect on N: redroot pigweed (evaluation grade 0-5) (redroot pigweed [20]): 5 (Herbicidal rate of 90% or more (almost completely withered)); Herbicidal effect by soil treatment, P: chickweed (chickweed [21]): 3 (Herbicidal rate of 40% or more and less than 70%); herbicidal effect on P: chickweed (evaluation grade 0-5) (chickweed [22]): 4 (Herbicidal rate of 70% or more and less than 90%); herbicidal effect on rice flat sedge (E) (rice flat sedge): 5 (Herbicidal rate of 90% or more (almost completely withered)); herbicidal effect on K: Italian ryegrass (evaluation grade 0-5) (Italian ryegrass [23]): 4 (Herbicidal rate of 70% or more and less than 90%); Herbicidal effect by soil treatment, G: green foxtail (green foxtail [24]): 3 (Herbicidal rate of 40% or more and less than 70%); herbicidal effect on barnyard grass (H) (barnyard grass [25]): 5 (Herbicidal rate of 90% or more (almost completely withered)); Herbicidal effect, A: late watergrass (late watergrass): 2 (Herbicidal rate of 20% or more and less than 40%)
2 | CCCC(=O)Oc1c(C)nn(C)c(=O)c1-c1c(-c2ccc(OC(F)(F)F)cc2)sc2c(F)cccc12 [4-049] | 0 (Herbicidal rate of 5% or less (almost no effect)) | 0 (Herbicidal rate of 5% or less (almost no effect)) | 5 (Herbicidal rate of 90% or more (almost completely withered)) | 0 (Herbicidal rate of 5% or less (almost no effect)) | 3 (Herbicidal rate of 40% or more and less than 70%) | 0 (Herbicidal rate of 5% or less (almost no effect)) | 5 (Herbicidal rate of 90% or more (almost completely withered)) | 4 (Herbicidal rate of 70% or more and less than 90%) | 5 (Herbicidal rate of 90% or more (almost completely withered)) | 4 (Herbicidal rate of 70% or more and less than 90%) | 3 (Herbicidal rate of 40% or more and less than 70%) | 0 (Herbicidal rate of 5% or less (almost no effect)) | 0 (Herbicidal rate of 5% or less (almost no effect)) | 0 (Herbicidal rate of 5% or less (almost no effect)) | 0 (Herbicidal rate of 5% or less (almost no effect)) | 0 (Herbicidal rate of 5% or less (almost no effect)) | 4 (Herbicidal rate of 70% or more and less than 90%) | 0 (Herbicidal rate of 5% or less (almost no effect)) | 0 (Herbicidal rate of 5% or less (almost no effect)) | 0 (Herbicidal rate of 5% or less (almost no effect)) | Herbicidal effect by soil treatment, J: blackgrass (blackgrass [19]): 0 (Herbicidal rate of 5% or less (almost no effect)); herbicidal effect on Chinese sprangletop (D) (Chinese sprangletop): 3 (Herbicidal rate of 40% or more and less than 70%); herbicidal effect on N: redroot pigweed (evaluation grade 0-5) (redroot pigweed [20]): 5 (Herbicidal rate of 90% or more (almost completely withered)); Herbicidal effect by soil treatment, P: chickweed (chickweed [21]): 3 (Herbicidal rate of 40% or more and less than 70%); herbicidal effect on P: chickweed (evaluation grade 0-5) (chickweed [22]): 5 (Herbicidal rate of 90% or more (almost completely withered)); herbicidal effect on rice flat sedge (E) (rice flat sedge): 5 (Herbicidal rate of 90% or more (almost completely withered)); herbicidal effect on K: Italian ryegrass (evaluation grade 0-5) (Italian ryegrass [23]): 0 (Herbicidal rate of 5% or less (almost no effect)); Herbicidal effect by soil treatment, G: green foxtail (green foxtail [24]): 0 (Herbicidal rate of 5% or less (almost no effect)); herbicidal effect on barnyard grass (H) (barnyard grass [25]): 5 (Herbicidal rate of 90% or more (almost completely withered)); Herbicidal effect, A: late watergrass (late watergrass): 3 (Herbicidal rate of 40% or more and less than 70%)
